How the values were obtained:
COLO 205 = test: Soft agar cloning assay; assay type: cell-based
Procedure: (§1) The soft agar colony formation assay has been previously described. In brief, for each treatment condition, triplicate 35 mm^2 dishes were coated with a 1 ml base layer containing 0.7% agarose (Seaplaque: FMC Corp., Rockland, ME). On day 0, cells were dissociated, washed once in growth medium, and subcultured by layering various cell concentrations in 0.5 ml culture medium containing 0.3% agarose onto the base coat. Culture dishes were transferred to a refrigerator (4°C) for 15 min, to room temperature for 10 min, and then to culture incubators. An upper layer of 0.5 ml culture medium was applied on day 0. Cultures were stained with MTT (1 mg/ml) for visualization and imaging at multiple time intervals (day 7 and 14). Cumulative counts of colonies (diameters, >60 µm) and cumulative volumes of CFU (diameters >120 µm) were determined with an Omnicon FAS-II (Bausch & Lomb, Rochester, NY) following calibration with an Omnicon test plate 3 and polystyrene microspheres embedded in soft agar matrix. The evaluable region of each culture dish (35 contiguous fields equivalent to 51% of the cell layer culture volume) was analyzed. Selective scoring of viable cell groups was achieved by adjustment of the instrument detection threshold to exclude images of nonstained cellular material and debris. The data was analyzed with Lotus Symphony software.

HCC-2998 = test: Soft agar cloning assay; assay type: cell-based
Procedure: as §1

HCT-116 = test: Soft agar cloning assay; assay type: cell-based
Procedure: as §1

HT29 = test: Soft agar cloning assay; assay type: cell-based
Procedure: as §1

KM12 = test: Soft agar cloning assay; assay type: cell-based
Procedure: as §1

colon tumor lines = test: FACS analysis of CD326 and CD166, all tumor lines; assay type: cell-based; details: any of the tumor lines; five days of SC-1 treatment
Source text: A BD FACsAria (BD Biosciences, San Jose, CA) was utilized for FACS analysis according to standard procedures. The instrument was equipped with a 488 nm 100 mW blue laser, a 638 nm 30 mW red laser, and a 405 nm 50 mW violet laser. The software package Diva 5.0 (BD Biosciences) was used for collection and analysis of data. The alignment of the three lasers in the flow cell was verified prior to running tumor cell samples by running Rainbow Beads (Spherotech). The six colors being used in the analysis were then compensated to account for spectral overlap emitted by the fluorochromes within each laser as well as across the lasers using a semi-automated process. […] The data was then run through the Diva software compensation matrices and the amount of “spectral bleed” from other fluorochromes into the fluorochrome of interest’s channel was determined and automatically compensated.
Treated and untreated cells (1×10^6 cells/condition) were harvested with trypsin EDTA (Invitrogen), washed, and then labeled with a six antibody cocktail (antibodies against the following epitopes: CD44, CD24, CD133, CD326, CD166, and P-glycoprotein in PBS without calcium and magnesium supplemented with 2% FBS) or appropriate isotype control antibodies. […] The specific amounts needed for each labeled antibody were determined through titration studies. […]

phospho-ERK1/2 [1] = test: Immunoblotting of phospho-ERK1/2 relative to total ERK1/2 in HT29; assay type: cell-based
Procedure: To determine if SC-1 reached the same target in the treated colon tumor lines, changes in abundance of phospho-ERK 1/2 (p-ERK) and total ERK1/2 protein were evaluated by immunoblotting at time points similar to those previously studied (Figure 3A). In the HT29 treated tumor line, phospho-ERK 1/2 protein levels (relative to total ERK1/2 protein levels) were decreased in 5 min (67±0.06% of control value), reached a trough at 1 hr (46±0.06% of control), and remained decreased during the remainder of the time course (4 hrs, 68±0.10% of control value). Thus, it is likely SC-1 is reaching its cognate molecular target in the HT29 tumor line.
(§2) Standard protein electrophoretic techniques were followed using previously published protocols. For these studies, the colon lines were cultured for 5 days with and without treatments, harvested with trypsin (0.25% trypsin 0.5 mM EDTA, Invitrogen), counted and lysed with a whole cell lysis buffer (10 mM Tris, 1.0 mM EDTA, 50 mM NaCl, 0.5% deoxycholate, 0.5% NP-40, 0.5% SDS, 1.0 mM PMSF, and aprotonin and a cocktail of phosphatase and protease inhibitors). The whole cell lysate was heated to 100°C for 10 min and then fractionated (1000 g, 10 min, 4°C). Protein concentrations were measured with the Pierce BCA Protein Assay. Twenty to 40 µg of protein lysate per lane were loaded onto 10% SDS polyacrylamide gels (Ready-Gels, Biorad) with Laemmli buffer. For immunoblotting, the primary antibodies were diluted in Tween/Tris wash buffer (0.1 mM Tris-HCl pH 7.5, 2.5% Tween-20, 150 mM NaCl) and 5% BSA or nonfat dry milk and incubated overnight at 4°C. Visualization of specific bands was accomplished with an alkaline phosphatase-labeled secondary anti-immunoglobulin antibody and the ECF Chemifluorescent reagent (GE Amersham). Pixel intensity of the imaged bands was measured using STORM (GE Amersham) and Image Quant Software. Normalization for loading was accomplished by reprobing with an anti-actin antibody, quantification of pixel intensity and data normalization.

OCT4 = test: Immunoblotting of OCT4 in HT29; assay type: cell-based; details: 0.1 µM SC-1
Procedure: as §2

phospho-ERK1/2 [2] = system: phospho-ERK1/2; parameters: method as in PMID 17088537; details: murine embryonic stem cells; 30 minutes of exposure; cited from earlier work
[3] = soft agar, summary of SC-1 effects

In the case of `Cc1cc(Nc2ncc3c(n2)N(C)C(=O)N(c2cc(NC(=O)c4cccc(C(F)(F)F)c4)ccc2C)C3)n(C)n1` [SC-1], the “Colony formation in soft agar vs control” value (COLO 205; 0.1 µM SC-1 for 24 hrs prior to cloning) is reported as “increased colony formation was found only at the highest plating density”, the “Cloning efficiency in soft agar vs control” value (COLO 205; 0.1 µM SC-1 for five days) is reported as “significant increases in cloning efficiencies” and the Clonogenicity (COLO 205; [3]) is reported as “Y”. The “Cloning efficiency in soft agar vs control” value (HCC-2998; 0.1 µM SC-1 for five days) was “significant increases in cloning efficiencies”, the Clonogenicity (HCC-2998; [3]) was “Y” and the “Cloning efficiency in soft agar vs control” value (HCT-116; 0.1 µM SC-1 for five days) was “significant increases in cloning efficiencies”. For the same molecule, the Clonogenicity (HCT-116; [3]) was “Y”, the “Cloning efficiency in soft agar vs control” value (HT29; 0.1 µM SC-1 for five days) was “significant increases in cloning efficiencies” and the Clonogenicity (HT29; [3]) was “Y”. For the same molecule, the “Cloning efficiency in soft agar vs control” value (KM12; 0.1 µM SC-1 for five days) was “significant increases in cloning efficiencies”, the Clonogenicity (KM12; [3]) was “Y” and the “CD326 and CD166 surface expression” value (colon tumor lines) was “No changes”. For the same molecule, the “phospho-ERK 1/2 protein levels relative to total ERK1/2” value (phospho-ERK1/2 [1]; 0.1 µM SC-1, 5 min) was 67±0.06 % of control, the “phospho-ERK 1/2 protein levels relative to total ERK1/2” value (phospho-ERK1/2 [1]; 0.1 µM SC-1, 30 min) was 56±0.06 % of control and the “phospho-ERK 1/2 protein levels relative to total ERK1/2” value (phospho-ERK1/2 [1]; 0.1 µM SC-1, 1 hr) was 46±0.06 % of control. The “phospho-ERK 1/2 protein levels relative to total ERK1/2” value (phospho-ERK1/2 [1]; 0.1 µM SC-1, 4 hrs) was 68±0.10 % of control, the OCT4 protein expression (OCT4) was “increased” and the phospho-ERK1/2 protein levels (phospho-ERK1/2 [2]) was “inhibited”.
